# Tested on: MOLT-4 cells
# Experiment: Inhibitory activity on MOLT4 cell proliferation by Cell Titer-Glo method
# Type: cell-based
# Details: Homo sapiens, 72 hours incubation, read-out: IC50 concentration for inhibiting MOLT-4 cells
# Experimental: Experimental Example 5, Evaluation Experiment of Inhibitory Activity of Compound on MOLT4 Cell Proliferation by Cell Titer-Glo Method
# RPMI medium modified (Hyclone), FBS (Corning), Dimethyl Sulfoxide, P/S, CellTiter-Gbo Luminescent Cell Viability Assay (Promega), MOLT-4 cell (ATCC).
# MOLT-4 cells were cultured in monolayer in vitro in an incubator containing 5% CO2 air at 37° C. The culture medium was RPMI 1640 with 10% FBS and 1% P/S. 15 μL of MOLT4 cells, containing 5×10^4 cells per ml, was inoculated to a 384-well plate (Corning, 3707), 750 cells/well, and incubated at 37° C. and 5% CO2 for 30 minutes. Then the compound that had been diluted in advance was added, with a total of 9 concentration points, and 2 parallel repetitions for each concentration point. The cell growing group without adding the compound was used as a negative control (maximum signal control), and the culture medium group was used as a blank control (minimum signal control). At the same time, it was ensured that the final DMSO content in each reaction well was 0.1%. The compound and the cells were incubated in a cell culture incubator at 37° C., 5% CO2 for 3 days (72 hours).
# The 384-well plate was taken out from the cell culture incubator and allowed to stand at room temperature, equilibrated for 20 to 30 minutes, and then 25 μl of Cell Titer-Glo detection reagent was added to each reaction well, lysed on a shaker for 2 minutes, incubated for 10 minutes, and BMG PHERAStar (Luminescence) was used for reading.
# The inhibition rate was calculated based on the luminescence signals: the average value of the negative control (maximum signal control) and the blank control (minimum signal control) was first calculated, then the inhibition rates of the compound at different concentrations for the cells were calculated as follows:
# The IC50 of the compound to inhibit cell activity was calculated by fitting with GraphPad Prism 6 using log(inhibitor) vs. response−Variable slope mode. The fitting equation was: Y=Bottom+(Top−Bottom)/(1+10^((LogIC50−X)*HillSlope)), wherein Y represented the inhibition rate and X represented the known compound concentration after Log.
row,IC50 [µM],Compound
1,100 to 200,O=C1CCC(N2Cc3c(CCCN4CCC(N5CCN(CC#Cc6ccc(/C=C/c7ccc(C(=O)N8CCc9cnc(-c%10cnc%11ccccc%11c%10)nc9C8)cc7)cc6)CC5)CC4)cccc3C2=O)C(=O)N1 (centres unmarked) [Compound F2-6]
2,1 to 10,CNc1nc(-c2cnc3ccccc3c2)nc2c1CCN(C(=O)c1ccc(/C=C/c3ccc(C#CCN4CCN(C5CCN(c6ccc7c(c6)CN(C6CCC(=O)NC6=O)C7=O)CC5)CC4)cc3)cc1)C2 (centres unmarked) [Compound F2-7]
3,100 to 200,CNc1nc(-c2cnc3ccccc3c2)nc2c1CCN(C(=O)c1ccc(/C=C/c3ccc(C#CCN4CCN(CCCCC#Cc5cccc6c5CN(C5CCC(=O)NC5=O)C6=O)CC4)cc3)cc1)C2 (centres unmarked) [Compound D2-7]
4,1 to 10,CNc1nc(-c2cnc3ccccc3c2)nc2c1CCN(C(=O)c1ccc(/C=C/c3ccc(C#CCN4CCN(CCCCCc5cccc6c5CN(C5CCC(=O)NC5=O)C6=O)CC4)cc3)cc1)C2 (centres unmarked) [Compound C1-4]
5,> 200,O=C1CCC(N2C(=O)c3cccc(N4CC5(CC(N6CCN(CC#Cc7ccc(/C=C/c8ccc(C(=O)N9CCc%10cnc(-c%11cnc%12ccccc%12c%11)nc%10C9)cc8)cc7)CC6)C5)C4)c3C2=O)C(=O)N1 (centres unmarked) [Compound F3A-1]
6,1 to 10,O=C1CCC(N2Cc3cc(C4CN(C5CCN(CC#Cc6ccc(OCC78CC(C(=O)N9CCc%10cnc(-c%11cnc%12ccccc%12c%11)nc%10C9)(C7)C8)cc6)CC5)C4)ccc3C2=O)C(=O)N1 (centres unmarked) [Compound F1A-5]
7,50 to 100,C=Cc1cc(-c2ncc3c(n2)CN(C(=O)c2ccc(COc4ccc(C#CCN5CCN(CCCCCOc6cccc7c6C(=O)N(C6CCC(=O)NC6=O)C7=O)CC5)cc4)nc2)CC3)cnc1C=C (centres unmarked) [Compound C3-12]
8,1 to 10,O=C1CCC(N2Cc3cc(N4CCC(N5CCN(CC#Cc6ccc(OCC78CC(C(=O)N9CCc%10cnc(-c%11cnc%12ccccc%12c%11)nc%10C9)(C7)C8)cc6)CC5)CC4)ccc3C2=O)C(=O)N1 (centres unmarked) [Compound F2-10]
9,1 to 10,C=Cc1cc(-c2nc3c(c(NC)n2)CCN(C(=O)c2ccc(COc4ccc(C#CCN5CCN(CCCNc6cccc7c6C(=O)N(C6CCC(=O)NC6=O)C7=O)CC5)cc4)cc2)C3)cnc1C=C (centres unmarked) [Compound C2-6]
10,> 200,O=C1CCC(N2Cc3cc(C#CCCCN4CCN(CC#Cc5ccc(/C=C/c6ccc(C(=O)N7CCc8cnc(-c9cnc%10ccccc%10c9)nc8C7)cc6)cc5)CC4)ccc3C2=O)C(=O)N1 (centres unmarked) [Compound D2-3]
11,1 to 10,C=Cc1cc(-c2ncc3c(n2)CN(C(=O)c2ccc(/C=C/c4ccc(C#CCN5CCN(CCCCc6ccc7c(c6)CN(C6CCC(=O)NC6=O)C7=O)CC5)cc4)cc2)CC3)cnc1C=C (centres unmarked) [Compound C1-3]
12,100 to 200,O=C1CCC(N2Cc3c(cccc3N3CC4(CC(CN5CCN(CC#Cc6ccc(/C=C/c7ccc(C(=O)N8CCc9cnc(-c%10cnc%11ccccc%11c%10)nc9C8)cc7)cc6)CC5)C4)C3)C2=O)C(=O)N1 (centres unmarked) [Compound F3A-4]

# More lines, now with the values behind:
row,Compound,IC50 [µM]
1,O=C1CCC(N2Cc3cc(CN4CC(N5CCN(CC#Cc6ccc(/C=C/c7ccc(C(=O)N8CCc9cnc(-c%10cnc%11ccccc%11c%10)nc9C8)cc7)cc6)CC5)C4)ccc3C2=O)C(=O)N1 (centres unmarked) [Compound F2-2],50 to 100
2,O=C1CCC(N2Cc3c(CN4CC5(CC(N6CCN(CC#Cc7ccc(/C=C/c8ccc(C(=O)N9CCc%10cnc(-c%11cnc%12ccccc%12c%11)nc%10C9)cc8)cc7)CC6)C5)C4)cccc3C2=O)C(=O)N1 (centres unmarked) [Compound F3A-2],100 to 200
3,O=C1CCC(c2cccc(C#CCCN3CCN(CC#Cc4ccc(OCC56CC(C(=O)N7CCc8cnc(-c9cnc%10ccccc%10c9)nc8C7)(C5)C6)cc4)CC3)c2)C(=O)N1 (centres unmarked) [Compound D2-16],1 to 10
4,C/C=c1/cc(-c2ncc3c(n2)CN(C(=O)c2ccc(/C=C/c4ccc(C#CCN5CCN(CCCCCCc6cccc7c6CN(C6CCC(=O)NC6=O)C7=O)CC5)cc4)cc2)CC3)cn/c1=C/C (centres unmarked) [Compound C1-2],> 200
5,C=Cc1cc(-c2nc3c(c(NC)n2)CCN(C(=O)c2ccc(COc4ccc(C#CCN5CCN(CCCCCOc6cccc7c6C(=O)N(C6CCC(=O)NC6=O)C7=O)CC5)cc4)cn2)C3)cnc1C=C (centres unmarked) [Compound C3-11],100 to 200
6,C=Cc1cc(-c2ncc3c(n2)CN(C(=O)c2ccc(/C=C/c4ccc(C#CCN5CCN(CCCCCOc6cccc7c6C(=O)N(C6CCC(=O)NC6=O)C7=O)CC5)nc4)cc2)CC3)cnc1C=C (centres unmarked) [Compound C3-8],> 200
7,O=C1CCC(N2Cc3cc(N4CCC(N5CCN(CC#Cc6ccc(/C=C/c7ccc(C(=O)N8CCc9cnc(-c%10cnc%11ccccc%11c%10)nc9C8)cc7)cc6)CC5)CC4)ccc3C2=O)C(=O)N1 (centres unmarked) [Compound F2-3],1 to 10
8,CNc1nc(-c2cnc3ccccc3c2)nc2c1CCN(C(=O)c1ccc(/C=C/c3ccc(C#CCN4CCN(C(=O)CCCCCC(=O)N[C@H](C(=O)N5C[C@H](O)C[C@H]5C(=O)NCc5ccc(-c6scnc6C)cc5)C(C)(C)C)CC4)cc3)cc1)C2 [Compound G1-3],> 200
9,O=C1CCC(N2Cc3c(C#CCCCCN4CCN(CC#Cc5ccc(/C=C/c6ccc(C(=O)N7CCc8cnc(-c9cnc%10ccccc%10c9)nc8C7)cc6)cc5)CC4)cccc3C2=O)C(=O)N1 (centres unmarked) [Compound D2-5],100 to 200
10,O=C1CCC(N2C(=O)c3ccc(N4CCN(CC5CCN(CC#Cc6ccc(OCC78CC(C(=O)N9CCc%10cnc(-c%11cnc%12ccccc%12c%11)nc%10C9)(C7)C8)cc6)CC5)CC4)cc3C2=O)C(=O)N1 (centres unmarked) [Compound F1B-4],1 to 10
11,O=C1CCC(N2Cc3c(CCCN4CC(N5CCN(CC#Cc6ccc(/C=C/c7ccc(C(=O)N8CCc9cnc(-c%10cnc%11ccccc%11c%10)nc9C8)cc7)cc6)CC5)C4)cccc3C2=O)C(=O)N1 (centres unmarked) [Compound F2-5],> 200

# Molecular target: ternary complex between BCL-XL and CRBN-DDB1 (Homo sapiens, UniProt Q07817+Q96SW2)
# Sequence (Q07817 whole entry): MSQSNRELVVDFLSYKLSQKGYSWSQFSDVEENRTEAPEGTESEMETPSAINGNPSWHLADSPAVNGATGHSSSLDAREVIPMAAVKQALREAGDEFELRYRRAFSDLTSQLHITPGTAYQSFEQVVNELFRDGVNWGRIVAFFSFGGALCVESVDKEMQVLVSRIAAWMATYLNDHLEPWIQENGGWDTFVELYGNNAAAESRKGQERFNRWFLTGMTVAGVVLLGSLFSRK
# Sequence (Q96SW2 whole entry): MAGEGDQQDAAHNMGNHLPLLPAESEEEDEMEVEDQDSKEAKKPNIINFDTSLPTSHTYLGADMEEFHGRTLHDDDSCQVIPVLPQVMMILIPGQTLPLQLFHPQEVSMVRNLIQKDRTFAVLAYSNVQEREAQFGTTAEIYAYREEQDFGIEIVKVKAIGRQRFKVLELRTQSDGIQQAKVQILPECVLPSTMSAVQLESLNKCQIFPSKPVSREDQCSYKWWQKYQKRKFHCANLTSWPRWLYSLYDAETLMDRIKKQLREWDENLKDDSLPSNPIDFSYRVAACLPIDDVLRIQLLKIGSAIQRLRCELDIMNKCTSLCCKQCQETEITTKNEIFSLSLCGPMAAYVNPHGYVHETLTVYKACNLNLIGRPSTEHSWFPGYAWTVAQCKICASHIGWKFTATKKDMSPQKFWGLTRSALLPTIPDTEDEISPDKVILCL
# Sequence (Q16531 whole entry partner): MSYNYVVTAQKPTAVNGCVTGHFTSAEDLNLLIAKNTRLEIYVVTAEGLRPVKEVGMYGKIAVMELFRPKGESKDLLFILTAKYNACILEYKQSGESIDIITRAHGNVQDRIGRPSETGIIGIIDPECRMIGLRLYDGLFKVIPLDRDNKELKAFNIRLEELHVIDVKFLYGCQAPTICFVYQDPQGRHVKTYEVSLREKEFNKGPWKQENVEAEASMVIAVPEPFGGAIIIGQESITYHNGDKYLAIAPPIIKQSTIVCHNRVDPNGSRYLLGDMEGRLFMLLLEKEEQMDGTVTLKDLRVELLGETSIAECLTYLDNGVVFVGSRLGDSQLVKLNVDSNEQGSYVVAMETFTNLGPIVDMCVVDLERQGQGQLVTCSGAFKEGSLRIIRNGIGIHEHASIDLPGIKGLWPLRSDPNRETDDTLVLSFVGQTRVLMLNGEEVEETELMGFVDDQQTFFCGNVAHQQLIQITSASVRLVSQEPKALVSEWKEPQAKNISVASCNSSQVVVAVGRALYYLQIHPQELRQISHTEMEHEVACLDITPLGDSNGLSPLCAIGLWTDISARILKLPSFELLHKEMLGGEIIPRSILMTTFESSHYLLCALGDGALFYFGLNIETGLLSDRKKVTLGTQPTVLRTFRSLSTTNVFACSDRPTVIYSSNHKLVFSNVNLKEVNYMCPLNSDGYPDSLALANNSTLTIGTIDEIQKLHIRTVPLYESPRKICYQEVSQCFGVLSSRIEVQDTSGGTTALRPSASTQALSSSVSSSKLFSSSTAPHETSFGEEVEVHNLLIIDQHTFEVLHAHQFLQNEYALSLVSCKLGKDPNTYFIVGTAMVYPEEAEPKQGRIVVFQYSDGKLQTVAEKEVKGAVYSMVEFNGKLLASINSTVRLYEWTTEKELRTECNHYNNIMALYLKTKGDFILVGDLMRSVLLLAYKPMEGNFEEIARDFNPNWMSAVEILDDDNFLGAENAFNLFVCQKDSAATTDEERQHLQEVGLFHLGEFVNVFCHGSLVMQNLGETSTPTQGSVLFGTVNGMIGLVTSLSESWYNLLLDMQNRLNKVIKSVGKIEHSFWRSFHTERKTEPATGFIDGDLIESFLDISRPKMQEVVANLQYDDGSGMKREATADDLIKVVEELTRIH
# Experiment: Compound-induced formation of ternary complex between BCL-XL and CRBN-DDB1 by AlphaLISA
# Type: biochemical
# Design: key: the number of + indicates the intensity of AlphaLISA peak signal; ++: the number of + indicates the intensity of AlphaLISA peak signal; +++: the number of + indicates the intensity of AlphaLISA peak signal; ++++: the number of + indicates the intensity of AlphaLISA peak signal; +++++: the number of + indicates the intensity of AlphaLISA peak signal
# Details: peak signal; 60 nM Strep-BCL-XL and 60 nM His-CRBN/DDB1
# Experimental: Experimental Example 4, Detection of Compound-Induced Formation of Ternary Complex Between BCL-XL and CRBN-DDB1 by AlphaLISA Method
# Na2HPO4(Sigma), NaH2PO4(Sigma), sodium chloride (Sigma), Tween-20 (Sigma), AlphaLISA®Nikel Chelate Acceptor beads (PerkinElmer), Strep-Tactin® Alpha Donor beads (PerkinElmer), Assay plate (Corning), Strep-BCl-XL (HitGen), His-CRBN/DDB1 (HitGen).
# DMSO was used to dissolve the dry powder of the test compound to obtain a 10.00 mM solution. The instrument ECHO was used to perform gradient dilution of the compound, which was then added to a 384-well reaction plate (Corning, Cat #3824), so that the final concentration of DMSO in the entire reaction system (10.0 μL) was less than 1%, and the same amount of DMSO was added and used as a control.
# Strep-BCl-XL and His-CRBN/DDB1 proteins were dissolved in buffer (10 mM NaH2PO4, 40 mM Na2HPO4, 150 mM sodium chloride, 0.03% Tween20, pH=7.4) to obtain a protein mixture of 60 nM Strep-BCL-XL and 60 nM His-CRBN/DDB1, the protein mixture (5ul/well) was added to the 384-well plate in which the compound had been added, and incubated at room temperature for 30 minutes, then 5 μl of a detection mixture with 50 μg/ml AlphaLISA®Nikel Chelate Acceptor beads and 50 μg/ml Strep-Tactin® Alpha Donor beads was added, and incubated at room temperature for 2 hours; and then a microplate reader was used to detect AlphaLISA signal.
# Fifth order polynomial or Sixth order polynomial in Polynomial of Graphpad 6.0 was used for data fitting.
row,AlphaLISA signal (PROTAC ternary complex signal intensity),Compound
1,+,C=Cc1cc(-c2ncc3c(n2)CN(C(=O)c2ccc(COc4ccc(C#CCN5CCN(CCCCCOc6cccc7c6C(=O)N(C6CCC(=O)NC6=O)C7=O)CC5)nc4)cc2)CC3)cnc1C=C (centres unmarked) [Compound C3-13]
2,+,C=Cc1cc(-c2nc3c(c(NC)n2)CCN(C(=O)c2ccc(COc4ccc(C#CCN5CCN(CCCCOc6cccc7c6C(=O)N(C6CCC(=O)NC6=O)C7=O)CC5)cc4)cc2)C3)cnc1C=C (centres unmarked) [Compound C3-15]
3,+,CNc1nc(-c2cnc3ccccc3c2)nc2c1CCN(C(=O)c1ccc(/C=C/c3ccc(C#CCN4CCN(C(=O)CCCCCC(=O)N[C@H](C(=O)N5C[C@H](O)C[C@H]5C(=O)NCc5ccc(-c6scnc6C)cc5)C(C)(C)C)CC4)cc3)cc1)C2 [Compound G2-5]

# Continued, compound first:
row,Compound,AlphaLISA signal (PROTAC ternary complex signal intensity)
1,C=Cc1cc(-c2nc3c(c(NC)n2)CCN(C(=O)c2ccc(COc4ccc(C#CCN5CCN(CCCCCCNc6cccc7c6C(=O)N(C6CCC(=O)NC6=O)C7=O)CC5)cc4)cc2)C3)cnc1C=C (centres unmarked) [Compound C2-4],++++
2,CNc1nc(-c2cnc3ccccc3c2)nc2c1CCN(C(=O)c1ccc(/C=C/c3ccc(C#CCN4CCN(C(=O)CCC(=O)N[C@H](C(=O)N5C[C@H](O)C[C@H]5C(=O)N[C@@H](C)c5ccc(-c6scnc6C)cc5)C(C)(C)C)CC4)cc3)cc1)C2 [Compound G2-2],+
3,C=Cc1cc(-c2ncc3c(n2)CN(C(=O)c2ccc(/C=C/c4ccc(C#CCN5CCN(CCCCCCOc6cccc7c6C(=O)N(C6CCC(=O)NC6=O)C7=O)CC5)cc4)cc2)CC3)cnc1C=C (centres unmarked) [Compound C3-3],+

# Source: patent publication US20250136593A1, “DEGRADATION AGENT AND USE THEREOF” (HITGEN INC., priority 2021, published 2025)
